pEC50, pIC50: −log10 of the molar value.
Assays:
human GHS receptor [1] = molecular target: T1, human GHS receptor (Homo sapiens, UniProt Q92847); assay: Ghrelin IP1 agonist assay (IP1 HTRF); format: cell-based; set-up: expressed in transfected cells; host or cells: HEK293s; details: for Emax: 2 h, agonist effect as % maximal effect of GHRP-6 (5 μM), read-out: h IP1 ag %; for pEC50: HEK293s cells stably expressing human GHS receptor, 2 hours at 37° C., read-out: h IP1 ag EC50
Protocol: In HEK293s cells stably expressing human GHS receptor (In-house), agonist activity was assessed by measuring intracellular myo-Inositol 1 phosphate (IP1) using the IP1 HTRF assay kit (Cisbio International).
Cells were harvested using accutase (Sigma), spun down at 1000 rpm for 5 minutes and resuspended in stimulation buffer (as above) containing 0.02% fatty acid free BSA at a density of 1.43E6cells/ml.
Agonist effect of the compound was expressed as % maximal effect of GHRP-6 (5 μM: Bachem). Sigmoidal curves were fitted by Origin 7.5 Client and EC50 values determined.

human GHS receptor [2] = molecular target: T1, human GHS receptor; assay: h bind IC50 (binding assay, Table 1); details: human receptor; Table 1

T1 sequence (Q92847 whole entry): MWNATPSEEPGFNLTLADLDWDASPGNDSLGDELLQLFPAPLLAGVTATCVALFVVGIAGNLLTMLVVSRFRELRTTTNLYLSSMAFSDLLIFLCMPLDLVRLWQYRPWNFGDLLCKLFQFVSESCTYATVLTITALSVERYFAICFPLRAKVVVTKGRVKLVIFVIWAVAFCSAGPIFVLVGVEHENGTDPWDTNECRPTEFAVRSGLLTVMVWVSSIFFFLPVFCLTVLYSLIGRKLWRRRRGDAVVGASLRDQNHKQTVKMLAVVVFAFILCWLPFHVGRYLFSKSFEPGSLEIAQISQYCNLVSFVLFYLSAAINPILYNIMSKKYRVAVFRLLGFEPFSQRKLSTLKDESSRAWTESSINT

Emax (human GHS receptor [1])	pEC50 (human GHS receptor [1])	pIC50 (human GHS receptor [2])	SMILES
34.1%	7.19	7.00	O=C(NC(=O)c1ccccc1Cl)Nc1nc2ccc(S(=O)(=O)CCN3CC[C@H](F)C3)cc2s1 [Example 16, 2-Chloro-N-[[6-[2-[(3S)-3-fluoropyrrolidin-1-yl]ethylsulfonyl]benzothiazol-2-yl]carbamoyl]benzamide]
42.1%	8.22	7.09	O=C(NC(=O)c1ccccc1Cl)Nc1nc2ccc(S(=O)(=O)CCNC3CCCC3)cc2s1 [Example 17, 2-Chloro-N-[[6-[2-(cyclopentylamino)ethylsulfonyl]benzothiazol-2-yl]carbamoyl]benzamide]
47%	7.27	6.60	CC1CCC(C)N1CCS(=O)(=O)c1ccc2nc(NC(=O)NC(=O)c3ccccc3Cl)sc2c1 (stereo not drawn) [Example 18, 2-Chloro-N-[[6-[2-(2,5-dimethylpyrrolidin-1-yl)ethylsulfonyl]benzothiazol-2-yl]carbamoyl]benzamide]
16.9%	6.66	5.78	O=C(NC(=O)c1ccccc1Cl)Nc1nc2ccc(S(=O)(=O)CCN3CCC(F)(F)C3)cc2s1 [Example 21, 2-Chloro-N-[[6-[2-(3,3-difluoropyrrolidin-1-yl)ethylsulfonyl]benzothiazol-2-yl]carbamoyl]benzamide]
54%	8.19	7.60	CC1CN(CCS(=O)(=O)c2ccc3nc(NC(=O)NC(=O)c4ccccc4Cl)sc3c2)CC(C)N1 (stereo not drawn) [Example 24, 2-Chloro-N-[[6-[2-(3,5-dimethylpiperazin-1-yl)ethylsulfonyl]benzothiazol-2-yl]carbamoyl]benzamide]
34.7%	7.86	6.72	O=C(NC(=O)c1ccccc1Cl)Nc1nc2ccc(S(=O)(=O)CCNC3CCC3)cc2s1 [Example 25, 2-Chloro-N-[[6-[2-(cyclobutylamino)ethylsulfonyl]benzothiazol-2-yl]carbamoyl]benzamide]
26.1%	6.21	6.37	CN(CCS(=O)(=O)c1ccc2nc(NC(=O)NC(=O)c3ccccc3Cl)sc2c1)CC1CCCO1 (stereo not drawn) [Example 26, 2-Chloro-N-[[6-[2-(methyl-(oxolan-2-ylmethyl)amino)ethylsulfonyl]benzothiazol-2-yl]carbamoyl]benzamide]
44.6%	7.47	7.37	CC(C)CNCCS(=O)(=O)c1ccc2nc(NC(=O)NC(=O)c3ccccc3Cl)sc2c1 [Example 28, 2-Chloro-N-[[6-[2-(2-methylpropylamino)ethylsulfonyl]benzothiazol-2-yl]carbamoyl]benzamide]
23.8%	7.41	6.60	O=C(NC(=O)c1ccccc1Cl)Nc1nc2ccc(S(=O)(=O)CCN3CCCOCC3)cc2s1 [Example 30, 2-Chloro-N-[[6-[2-(1,4-oxazepan-4-yl)ethylsulfonyl]benzothiazol-2-yl]carbamoyl]benzamide]
28%	6.51	6.40	O=C(NC(=O)c1ccccc1Cl)Nc1nc2ccc(S(=O)(=O)CCN3CC[C@@H](F)C3)cc2s1 [Example 32, 2-Chloro-N-[[6-[2-[(3R)-3-fluoropyrrolidin-1-yl]ethylsulfonyl]benzothiazol-2-yl]carbamoyl]benzamide]
41.5%	7.60	7.05	O=C(NC(=O)c1ccccc1Cl)Nc1nc2ccc(S(=O)(=O)CCN3CCCCC3)cc2s1 [Example 33, 2-Chloro-N-[[6-[2-(1-piperidyl)ethylsulfonyl]benzothiazol-2-yl]carbamoyl]benzamide]

SMILES	Emax (human GHS receptor [1])	pEC50 (human GHS receptor [1])	pIC50 (human GHS receptor [2])
CC1CCCCN1CCS(=O)(=O)c1ccc2nc(NC(=O)NC(=O)c3ccccc3Cl)sc2c1 (stereo not drawn) [Example 27, 2-Chloro-N-[[6-[2-(2-methyl-1-piperidyl)ethylsulfonyl]benzothiazol-2-yl]carbamoyl]benzamide]	46.7%	7.64	6.94

— US20120115845A1, “THERAPEUTIC AGENTS” (priority 2007, published 2012)
